According to patent US8722727B2, “Antifungal agents” (Seynix, Inc., priority 2008, dated 2014):

Biological target: T1, glucan synthase (GS) (Candida albicans, UniProt O13428)
T1 construct: Extraction of GS activity from membranes was performed at a protein concentration of 5 mg/mL in extraction buffer; endogenous in cells; host or cells: Candida albicans MY1055 (membrane fraction, detergent extraction, product entrapment)
Experiment: Glucan synthase inhibition (polymerization assay, 96-well)
Type: biochemical
Conditions: glucan synthase prepared from Candida albicans MY1055; 60 min incubation at 22° C.; read-out: Candida Albicans GS IC50 (ng/mL) (converted)
Procedure, shortened: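 Partially purified membrane glucan synthase from C. albicans MY1055, 60 min at 22° C with 0.5 mM 3H-UDPG, 25 μM GTP-γ-S, pH 7.5 HEPES, 25 mM KF. TCA-precipitated glucan filtered and scintillation counted; IC50 (ng/mL) from sigmoidal fit of duplicates over 3-fold dilutions.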

T1 sequence (O13428 1-1897): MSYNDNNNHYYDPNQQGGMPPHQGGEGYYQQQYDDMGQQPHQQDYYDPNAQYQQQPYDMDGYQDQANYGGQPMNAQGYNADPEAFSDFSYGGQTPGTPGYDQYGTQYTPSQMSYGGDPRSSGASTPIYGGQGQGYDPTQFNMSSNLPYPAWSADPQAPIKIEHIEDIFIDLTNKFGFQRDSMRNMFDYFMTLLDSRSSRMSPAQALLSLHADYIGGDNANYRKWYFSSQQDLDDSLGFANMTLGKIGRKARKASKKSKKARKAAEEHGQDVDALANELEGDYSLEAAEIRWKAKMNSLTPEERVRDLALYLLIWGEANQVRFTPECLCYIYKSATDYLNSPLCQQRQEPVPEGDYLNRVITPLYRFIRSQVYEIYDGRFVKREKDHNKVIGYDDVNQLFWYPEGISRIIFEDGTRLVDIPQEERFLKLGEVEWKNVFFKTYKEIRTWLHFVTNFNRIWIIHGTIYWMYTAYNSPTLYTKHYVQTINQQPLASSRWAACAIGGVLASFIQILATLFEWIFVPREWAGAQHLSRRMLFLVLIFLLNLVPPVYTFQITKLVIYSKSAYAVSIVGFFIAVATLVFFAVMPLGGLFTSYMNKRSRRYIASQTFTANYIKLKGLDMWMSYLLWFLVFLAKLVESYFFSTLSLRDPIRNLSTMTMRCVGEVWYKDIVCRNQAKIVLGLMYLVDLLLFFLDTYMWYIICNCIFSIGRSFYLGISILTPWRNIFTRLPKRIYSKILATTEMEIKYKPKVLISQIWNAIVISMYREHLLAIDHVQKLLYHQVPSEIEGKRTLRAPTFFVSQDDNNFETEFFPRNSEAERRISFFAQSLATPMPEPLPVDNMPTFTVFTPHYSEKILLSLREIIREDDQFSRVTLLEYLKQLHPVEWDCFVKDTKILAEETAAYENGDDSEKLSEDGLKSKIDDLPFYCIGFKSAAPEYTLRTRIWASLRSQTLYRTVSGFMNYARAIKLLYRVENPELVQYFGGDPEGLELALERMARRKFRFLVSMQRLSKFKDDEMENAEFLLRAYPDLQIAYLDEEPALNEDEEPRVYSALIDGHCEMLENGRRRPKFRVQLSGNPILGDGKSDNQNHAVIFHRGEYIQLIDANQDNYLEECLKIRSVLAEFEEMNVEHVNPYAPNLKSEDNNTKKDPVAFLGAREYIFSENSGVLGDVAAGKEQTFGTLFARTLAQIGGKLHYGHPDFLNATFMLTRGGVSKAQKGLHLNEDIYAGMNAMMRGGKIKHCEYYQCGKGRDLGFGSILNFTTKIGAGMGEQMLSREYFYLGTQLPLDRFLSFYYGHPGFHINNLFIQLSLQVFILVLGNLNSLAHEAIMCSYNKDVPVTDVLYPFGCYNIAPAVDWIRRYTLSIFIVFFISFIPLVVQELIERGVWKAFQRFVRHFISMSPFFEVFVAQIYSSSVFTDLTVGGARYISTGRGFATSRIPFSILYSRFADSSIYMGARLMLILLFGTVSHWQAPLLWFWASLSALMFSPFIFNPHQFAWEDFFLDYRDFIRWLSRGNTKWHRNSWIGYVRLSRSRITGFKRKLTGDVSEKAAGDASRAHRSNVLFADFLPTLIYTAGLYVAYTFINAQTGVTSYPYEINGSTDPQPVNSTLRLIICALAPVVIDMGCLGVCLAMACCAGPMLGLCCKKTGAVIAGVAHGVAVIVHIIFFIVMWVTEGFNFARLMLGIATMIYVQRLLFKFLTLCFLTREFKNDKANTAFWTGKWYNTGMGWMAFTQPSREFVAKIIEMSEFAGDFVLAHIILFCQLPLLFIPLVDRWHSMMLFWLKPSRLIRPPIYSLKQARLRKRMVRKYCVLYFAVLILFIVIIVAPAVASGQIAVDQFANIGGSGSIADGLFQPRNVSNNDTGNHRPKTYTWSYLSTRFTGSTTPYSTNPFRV
T1 sequence (O42825 1-195 partner limits assumed): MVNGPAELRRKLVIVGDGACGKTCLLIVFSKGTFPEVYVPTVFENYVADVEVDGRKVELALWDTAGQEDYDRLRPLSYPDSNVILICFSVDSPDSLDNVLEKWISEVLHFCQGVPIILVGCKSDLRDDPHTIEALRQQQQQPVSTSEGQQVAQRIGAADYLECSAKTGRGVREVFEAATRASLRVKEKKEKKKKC

Row | Structure (SMILES) | IC50
1 | CC(C)[C@@H](C)[C@@]1(C)CC[C@]2(C)[C@H]3CC[C@@H]4[C@@]5(COC[C@@]4(C)[C@@H](OCC(C)(N)CCO)[C@H](n4nnc(N)n4)C5)C3=CC[C@@]2(C)[C@@H]1C(=O)O (stereo partly drawn) [Example 122, (1S,4aR,6aS,7R,8R,10aR,10bR,12aR,14R,15R)-15-(2-amino-4-hydroxy-2-methylbutoxy)-14-(5-amino-2H-tetrazol-2-yl)-8-[(1R)-1,2-dimethylpropyl]-1,6,6a,7,8,9,10,10a,10b,11,12,12a-dodecahydro-1,6a,8,10a-tetramethyl-4H-1,4a-propano-2H-phenanthro[1,2-c]pyran-7-carboxylic acid] | 16.7 nM
2 | CCN(C)C(C)(CCOC)CO[C@H]1[C@H](n2nnc(N)n2)C[C@@]23COC[C@]1(C)[C@@H]2CC[C@H]1C3=CC[C@@]2(C)[C@H](C(=O)O)[C@@](C)([C@H](C)C(C)C)CC[C@]12C (stereo partly drawn) [Example 127, (1S,4aR,6aS,7R,8R,10aR,10bR,12aR,14R,15R)-14-(5-amino-2H-tetrazol-2-yl)-8-[(1R)-1,2-dimethylpropyl]-15-[2-(ethylmethylamino)-4-methoxy-2-methylbutoxy]-1,6,6a,7,8,9,10,10a,10b,11,12,12a-dodecahydro-1,6a,8,10a-tetramethyl-4H-1,4a-propano-2H-phenanthro[1,2-c]pyran-7-carboxylic acid] | 30.9 nM
3 | CNC(C)(CCF)CO[C@H]1[C@H](n2nnc(N)n2)C[C@@]23COC[C@]1(C)[C@@H]2CC[C@H]1C3=CC[C@@]2(C)[C@H](C(=O)O)[C@@](C)([C@H](C)C(C)C)CC[C@]12C (stereo partly drawn) [Example 129, (1S,4aR,6aS,7R,8R,10aR,10bR,12aR,14R,15R)-14-(5-amino-2H-tetrazol-2-yl)-8-[(1R)-1,2-dimethylpropyl]-15-[4-fluoro-2-methyl-2-(methylamino)butoxy]-1,6,6a,7,8,9,10,10a,10b,11,12,12a-dodecahydro-1,6a,8,10a-tetramethyl-4H-1,4a-propano-2H-phenanthro[1,2-c]pyran-7-carboxylic acid] | 7.43 nM
